From paper doi:10.1101/2025.02.03.636334v1 (biorxiv, 2025)
In brackets after ≈: the same amount, converted by molar mass.

Tested on: M. tuberculosis H37Rv
Test: microbe, parasite or virus in culture
Conditions: Mycobacterium tuberculosis, 192 h, read-out: Mtb MIC (µM)

Structure (SMILES) | MIC
O=c1[nH]c(SCc2cc(F)cc3c2OC(c2ccccc2)OC3)nc2sc3c(c12)CCCC3 (stereo not drawn) [Z13684502] | 100 µM (≈ 48.1 µg/mL)
O=C(Nc1ccc(F)cc1)C(c1ccccc1)N1C(=O)NC(c2ccccc2)(c2ccccc2)C1=O (stereo not drawn) [Z14471296] | 100 µM (≈ 48 µg/mL)
O=C(CN1C(=O)NC(c2ccccc2)(c2ccccc2)C1=O)NC(c1ccccc1)c1ccccc1 [Z14474580] | 100 µM (≈ 47.6 µg/mL)
CC(NC(=O)CN1C(=O)NC(c2ccccc2)(c2ccccc2)C1=O)c1ccc(Cl)cc1 (stereo not drawn) [Z14475560] | 100 µM (≈ 44.8 µg/mL)
O=C(COC(=O)c1cc(-c2ccccc2)nn1-c1ccccc1)NC(c1ccccc1)c1ccccc1 [Z15852380] | 100 µM (≈ 48.8 µg/mL)
O=C(COC(=O)c1cc(-c2cccc3ccccc23)nc2ccccc12)Nc1cc(C(F)(F)F)ccc1N1CCOCC1 [Z18816890] | 100 µM (≈ 58.6 µg/mL)
O=C1NC2(CCCC2)C(=O)N1Cc1cn(-c2ccccc2)nc1-c1ccc(Cl)cc1 [Z25701709] | 100 µM (≈ 42.1 µg/mL)
Cc1cccc(-c2nn(-c3ccccc3)cc2C(=O)Oc2ccccc2-c2nc3ccccc3s2)c1 [Z26889353] | 100 µM (≈ 48.8 µg/mL)
O=C(c1ccc(F)cc1)N1CCN(Cc2nc3sc4c(c3c(=O)[nH]2)CCCC4)CC1 [Z26985512] | 25 µM (≈ 10.7 µg/mL)
Cc1ccc2nc(-c3ccc(NC(=O)c4cc(-c5ccccc5)nn4-c4ccccc4)cc3)sc2c1 [Z27663993] | 100 µM (≈ 48.7 µg/mL)
O=C(/C=C/c1cn(-c2ccccc2)nc1-c1ccc(F)cc1)N1CCCS/C1=N\c1ccccc1 [Z27871611] | 100 µM (≈ 48.3 µg/mL)
O=C(Nc1nc(-c2cccs2)cs1)c1cc(-c2ccccc2)nc2ccccc12 [Z28307167] | 100 µM (≈ 41.4 µg/mL)
Cc1ccc(-c2cc(C(=O)N3CCN(Cc4nc5ccccc5s4)CC3)c3ccccc3n2)cc1 [Z28583171] | 6.2 µM (≈ 2.97 µg/mL)
N#Cc1ccc(CN2CCN(C(=O)c3cc(-c4ccccc4)nn3-c3ccccc3)CC2)cc1 [Z28887309] | 50 µM (≈ 22.4 µg/mL)
CC1(c2ccc3ccccc3c2)NC(=O)N(CC(=O)Nc2nc(-c3ccc4c(c3)CCC4)cs2)C1=O (stereo not drawn) [Z28888852] | 3.1 µM (≈ 1.54 µg/mL)
Cc1cccc(Oc2ccc(NC(=O)c3nn(-c4ccccc4)c(=O)c4ccccc34)cc2)c1 [Z29906038] | 100 µM (≈ 44.7 µg/mL)
O=C(Nc1ccc2oc3ccccc3c2c1)c1ccc(=O)n(Cc2ccccc2)n1 [Z30534850] | 100 µM (≈ 39.5 µg/mL)
CCn1c2ccccc2c2cc(NC(=O)c3cc(-c4ccccc4)nc4ccccc34)ccc21 [Z30593627] | 100 µM (≈ 44.2 µg/mL)
O=C(NNc1ccc(F)cc1)c1cccc(S(=O)(=O)N2CCc3ccccc3C2)c1 [Z30877419] | 100 µM (≈ 42.5 µg/mL)
Cc1ccc(-c2cc(C(=O)Oc3ccc(Oc4ccccc4)cc3)c3ccccc3n2)cc1 [Z30908638] | 100 µM (≈ 43.1 µg/mL)
COc1cc2c(cc1NC(=O)c1ccccc1-c1ccc(C(F)(F)F)cc1)oc1ccccc12 [Z30927947] | 100 µM (≈ 46.1 µg/mL)
O=S(=O)(c1cccc(C(F)(F)F)c1)N1CCN(c2nc(-c3ccccc3)nc3ccccc23)CC1 [Z31104682] | 100 µM (≈ 49.9 µg/mL)
O=C1C(=CNc2cccc(C(F)(F)F)c2)c2ccccc2C(=O)N1c1cccc(C(F)(F)F)c1 [Z31274934] | 6.2 µM (≈ 2.95 µg/mL)
O=C(Nc1ccc(F)c(S(=O)(=O)Nc2cccc(C(F)(F)F)c2)c1)c1cc2ccccc2o1 [Z33249504] | 50 µM (≈ 23.9 µg/mL)
CN1C(=CC=NNC(=O)c2cn(-c3ccccc3)nc2-c2ccccc2)C(C)(C)c2ccccc21 [Z44838075] | 100 µM (≈ 46.2 µg/mL)
O=C(OCc1nc2sc3c(c2c(=O)[nH]1)CCCC3)c1cn(-c2ccccc2)nc1-c1ccccc1 [Z53787257] | 100 µM (≈ 48.3 µg/mL)

Structure (SMILES) | MIC
O=C(CN1C(=O)NC(c2ccccc2)(c2ccccc2)C1=O)Nc1ccccc1C(=O)NC1CCCC1 [Z54675683] | 100 µM (≈ 49.7 µg/mL)
O=C(COC(=O)c1c2c(nc3ccccc13)CCN(Cc1ccccc1)C2)Nc1c(F)cccc1F [Z55704575] | 100 µM (≈ 48.8 µg/mL)
Cc1nn(-c2ccccc2)c2sc(C(=O)N=C3N=C4C=CC(Br)=CN4Cc4ccccc43)cc12 [Z56688850] | 100 µM (≈ 52.8 µg/mL)
Fc1ccccc1C1Oc2ccccc2C2CC(c3ccc(-c4ccccc4)cc3)=NN21 (stereo not drawn) [Z56764284] | 100 µM (≈ 42 µg/mL)
Fc1ccc(C2Oc3ccccc3C3CC(c4ccc(-c5ccccc5)cc4)=NN32)cc1 (stereo not drawn) [Z56765649] | 25 µM (≈ 10.5 µg/mL)
O=C(N=C1N=C2C=CC=CN2Cc2ccccc21)c1cn(-c2ccccc2)nc1-c1ccc(F)cc1 [Z56787786] | 100 µM (≈ 47.4 µg/mL)
Cc1cc(NC(=O)c2cc(-c3ccc(Cl)cc3)nc3ccccc23)n(-c2ccccn2)n1 [Z56802924] | 100 µM (≈ 44 µg/mL)
Cc1ccc(-c2nn(-c3ccccc3)cc2CCC(=O)Nc2cccc3ccccc23)cc1 [Z56806542] | 100 µM (≈ 43.2 µg/mL)
Cc1ccc2nc(-c3ccc(NC(=O)c4cccc(S(=O)(=O)Nc5cccc(C(F)(F)F)c5)c4)cc3)sc2c1 [Z56810513] | 6.2 µM (≈ 3.52 µg/mL)
Nc1c(-c2ccccc2)c(CN2CCN(c3ccccc3F)CC2)nn1-c1ccc(F)cc1 [Z56903079] | 25 µM (≈ 11.1 µg/mL)
Cc1ccc(-c2cn3c(C(=S)Nc4ccc(F)cc4)c(-c4ccccc4)c4c3n2CCCC4)cc1 [Z57009953] | 100 µM (≈ 48 µg/mL)
O=C(N[C@@H](Cc1ccccc1)c1nc2ccccc2[nH]1)c1ccc(-c2cccc(C(F)(F)F)c2)o1 [Z57992786] | 100 µM (≈ 47.5 µg/mL)
O=C(CN1CCCC1c1ccc2c(c1)OCCCO2)Nc1ccccc1Cc1ccccc1 (stereo not drawn) [Z65195872] | 50 µM (≈ 22.1 µg/mL)
O=C(CN1C(=O)NC2(CCc3ccccc32)C1=O)NC(c1ccccc1)c1ccc(Cl)cc1 (stereo not drawn) [Z65674656] | 100 µM (≈ 46 µg/mL)
Cc1ccc(-c2cc(C(=O)N3CCN(Cc4ccncc4)CC3)c3ccccc3n2)cc1 [Z70806128] | 100 µM (≈ 42.3 µg/mL)
O=C(Nc1ccc(-n2cnc3ccccc32)cc1)c1nn(-c2ccccc2)c(=O)c2ccccc12 [Z82203216] | 100 µM (≈ 45.7 µg/mL)
O=C(Nc1cn(-c2ccccc2)nc1-c1ccc(F)cc1)Nc1cccc2ccccc12 [Z85924883] | 100 µM (≈ 42.2 µg/mL)
O=C(CN1C(=O)NC2(CCc3ccccc32)C1=O)c1c(-c2ccc(F)cc2)[nH]c2ccccc12 (stereo not drawn) [Z89714290] | 25 µM (≈ 11.3 µg/mL)
O=C(CN1C(=O)NC2(CCOc3ccccc32)C1=O)c1c(-c2ccc(F)cc2)[nH]c2ccccc12 (stereo not drawn) [Z89763517] | 3.1 µM (≈ 1.46 µg/mL)
Cc1ccc(-c2nn(Cc3ccccc3)cc2C2NC(=O)c3ccccc3N2)cc1 (stereo not drawn) [Z94792468] | 100 µM (≈ 39.4 µg/mL)
O=C(Nc1ccc2c(c1)OCO2)C1CCN(C(=O)c2nn(-c3ccccc3)c(=O)c3ccccc23)CC1 [Z99494278] | 100 µM (≈ 49.7 µg/mL)
Cc1ccc(-c2cc(C(=O)N3CCC(C(=O)Nc4ccc5c(c4)OCO5)CC3)c3ccccc3n2)o1 [Z99494285] | 100 µM (≈ 48.4 µg/mL)
O=C(c1nn(Cc2ccccc2)c(=O)c2ccccc12)N1CCN(Cc2ccc3c(c2)CCO3)CC1 [Z102666506] | 100 µM (≈ 48.1 µg/mL)
O=C(c1ccc2noc(-c3ccccc3)c2c1)N1CCN(Cc2ccc3c(c2)CCO3)CC1 [Z102669950] | 100 µM (≈ 44 µg/mL)
O=c1[nH]c(CN2CCN(C(c3ccc(F)cc3)c3ccc(F)cc3)CC2)nc2sc3c(c12)CCC3 [Z105382408] | 100 µM (≈ 49.3 µg/mL)
c1cncc(-c2nc(N3CCN(Cc4ccc5c(c4)CCO5)CC3)c3ccccc3n2)c1 [Z128095220] | 25 µM (≈ 10.6 µg/mL)

Structure (SMILES) | MIC
O=C(NN1C(=O)NC(c2ccccc2)(c2ccccc2)C1=O)c1ccc(-c2ccccc2F)o1 [Z137249014] | 100 µM (≈ 45.5 µg/mL)
O=C(CCc1nc2c(cnn2-c2ccccc2)c(=O)[nH]1)N1CCCC1c1ccc2c(c1)OCCCO2 (stereo not drawn) [Z140090268] | 100 µM (≈ 48.6 µg/mL)
NC(=O)C1Cc2ccccc2CN1C(=O)CCc1c(-c2ccc(F)cc2)[nH]c2ccccc12 (stereo not drawn) [Z143202488] | 100 µM (≈ 44.2 µg/mL)
O=c1[nH]c(SCc2cn(-c3ccccc3)nc2-c2ccccc2)nc2c1cnn2-c1ccccc1 [Z150144208] | 3.1 µM (≈ 1.48 µg/mL)
O=C(c1nn(-c2ccccc2)c(=O)c2ccccc12)N1CCCN(Cc2ccc(Cl)cc2)CC1 [Z212593638] | 50 µM (≈ 23.6 µg/mL)
O=C(Cn1c2ccccc2c(=O)c2ccccc21)NC(c1ccccc1)c1cc2ccccc2o1 (stereo not drawn) [Z229616646] | 100 µM (≈ 45.9 µg/mL)
c1cncc(-c2nc(N3CCN(Cc4ccc5ccccc5c4)CC3)c3ccccc3n2)c1 [Z237483836] | 100 µM (≈ 43.2 µg/mL)
O=C(CCc1ccc(-c2ccccc2)o1)N1CCN(c2ccnc3cc(Cl)ccc23)CC1 [Z285125220] | 100 µM (≈ 44.6 µg/mL)
Cc1ccc(-c2ccsc2C(=O)NNS(=O)(=O)c2ccc3oc(=O)ccc3c2)cc1 [Z299677296] | 100 µM (≈ 44.1 µg/mL)
O=C(CN1CCN(C(=O)c2cccc3ccccc23)CC1)Nc1ccccc1Cc1ccccc1 [Z316384350] | 25 µM (≈ 11.6 µg/mL)
Nc1nn(C(=O)c2cc(S(=O)(=O)Nc3cccc(C(F)(F)F)c3)ccc2Cl)c2ccccc12 [Z381337772] | 100 µM (≈ 49.5 µg/mL)
O=C(c1ccccc1)C1CCN(C2c3ccccc3-c3ccccc32)CC1 [Z646019388] | 100 µM (≈ 35.3 µg/mL)
O=C(NCc1ccccc1)c1ccc(Oc2nc(-c3ccccc3)cc(-c3ccccc3)n2)cc1 [Z1037335532] | 100 µM (≈ 45.8 µg/mL)
c1ccc(-c2ccc(Oc3nc(-c4ccccc4)cc(-c4ccccc4)n3)cc2)cc1 [Z1037335802] | 100 µM (≈ 40 µg/mL)
c1ccc(C(c2ccccc2)N2CCN(c3nc4ccccc4c4nc(-c5cccnc5)nn34)CC2)cc1 [Z1157836627] | 100 µM (≈ 49.8 µg/mL)
Clc1ccc(-c2nc(NN=Cc3ccc4ccccc4n3)nc3ccccc23)cc1 [Z1187818773] | 100 µM (≈ 41 µg/mL)
O=C(c1ccccc1)c1ccc(Cl)cc1Nc1cc(-c2ccccc2)c2ccc(Cl)cc2n1 [Z1386458621] | 100 µM (≈ 46.9 µg/mL)
Cc1ccc2c(-c3ccccc3)nc(NN=Cc3c[nH]c4ccccc34)nc2c1 [Z1409330734] | 50 µM (≈ 18.9 µg/mL)
Clc1ccc2nc(N3N=C(c4ccccc4)CC3c3cccc(Br)c3)nc(-c3ccccc3)c2c1 (stereo not drawn) [Z1558470019] | 100 µM (≈ 54 µg/mL)
Cc1ccc(-c2nc(N3N=C(c4cccc(Br)c4)CC3c3cccc(Br)c3)nc3ccccc23)cc1 (stereo not drawn) [Z1558581154] | 100 µM (≈ 59.8 µg/mL)
Cc1cccc(C2CC(c3ccc(N(C)C)cc3)=NN2c2nc(-c3ccc(Cl)cc3)c3ccccc3n2)c1 (stereo not drawn) [Z1898794184] | 100 µM (≈ 51.8 µg/mL)
Oc1nc2cc(Cl)ccc2c(-c2ccccc2)c1-c1cc(-c2ccccc2)c2ccc(Cl)cc2n1 [Z2010009645] | 100 µM (≈ 49.3 µg/mL)
Clc1ccc2c(-c3ccccc3)cc(-c3c(Cl)nc4ccc(Br)cc4c3-c3ccccc3)nc2c1 [Z2039275273] | 100 µM (≈ 55.6 µg/mL)
O=C1c2ccccc2C(=O)N1C(Cc1ccccc1)c1nc2c3ccccc3ncn2n1 (stereo not drawn) [Z2176371175] | 100 µM (≈ 41.9 µg/mL)
O=C(c1ccccc1)c1ccc(Cl)cc1Nc1cc(-c2ccccc2)c2cc(Cl)ccc2n1 [Z2196034878] | 100 µM (≈ 46.9 µg/mL)
Cc1ccc2c(-c3ccccc3)nc(NN=Cc3cnc4ccccc4n3)nc2c1 [Z2488926519] | 100 µM (≈ 39 µg/mL)
